≈ marks a conversion by molar mass, not a printed value.
Columns and labels:
[1] = system: pro-inflammatory cytokines/chemokines in subcutaneous abscesses; assay: Pro-inflammatory cytokines and chemokines in subcutaneous abscesses (multiplex ELISA); assay type: in vivo, female outbred CD-1 mice; details: single IM 50 mg/kg at 6 h post-challenge, n = 5
Experimental: At 3 h and 18 h post-treatment (Section 2.4: single IM treatment), mice were euthanized (n = 5 per cohort per time point), then abscess and skin biopsies were collected (Section 2.5), suspended in PBS [2 mL], and homogenized in C tubes (Miltenyi Biotec 130-093-237) using a gentleMACS Dissociator (Miltenyi Biotec 130-093-235, program B). Tissue homogenates were stored at −20 °C until analysis. Homogenized abscess tissues were then analyzed using a V-PLEX Pro-inflammatory Panel 1 Mouse Kit (Meso Scale Diagnostics K15048D-1) on a MESO QuickPlex SQ 120MM (MESO, Rockville, MD, USA) to measure the inflammatory markers of the abscesses.

[2] = system: healthy male and female outbred CD-1 mice; assay: IM dose escalation in healthy CD-1 mice; assay type: in vivo
Experimental: Twenty-four CD-1 mice, approximately 4 weeks old, were randomized by weight and sex into four cohorts and then intramuscularly administered either vehicle alone (filter-sterilized 0.2 μm endotoxin-free PBS) or vehicle containing CPDI-02 twice a week over 4 weeks (eight doses total). CPDI-02 doses began at 15 mg/kg and subsequent doses were increased by a conventional modified Fibonacci scheme (increase over previous dose: 100%, 67%, 50%, 40%, 30%, 33%, 33%) to a final dose of 225 mg/kg. Mice were weighed prior to the study and prior to each dose administration. On each dose administration date, mice were assigned a Pain and Distress Assessment Score (Table S1). Four days after the last treatment, mice were euthanized, whole blood was collected for complete blood count (CBC) with differential (VetScan® HM5 Hematology Analyzer), and the thymus, heart, lungs, brain, liver, spleen, kidneys, femur bone marrow, popliteal lymph nodes, Peyer’s patches, and injection site muscle (left caudal thigh muscle) were collected. Collected tissues were fixed in 10% formalin for 48 h and then embedded in paraffin. Before embedment in paraffin, femur bone marrow samples underwent decalcification by shaking in 10% formic acid for 8 h. Paraffin samples were cut into sections and underwent a Hematoxylin and Eosin (H&E) stain, then analyzed for signs of inflammation and other tissue abnormalities utilizing a Nikon Eclipse E600 at 40× magnification, and imaged using a Lumenera Infinity 2 Microscope Camera.

[3] = physchem; details: aqueous buffer
[4] = system: primary human mononuclear phagocytes (MPs); details: cited from earlier work
Source text: (§1) Complement Peptide-Derived Immunostimulant-02 (CPDI-02) (formerly EP67) is a novel, second-generation host-derived decapeptide agonist of […] (C5) Receptor 1 (C5aR1/C5a1R/CD88), which is based on the C-terminal pharmacophore of human Complement Peptide C5a (hC5a).

[5] = system: primary human neutrophils (NPs); details: cited from earlier work
Source text: as §1

[6] = system: healthy male and female outbred CD-1 mice; assay: Repeat IM dosing in healthy CD-1 mice; assay type: in vivo
Experimental: Sixty CD-1 mice (thirty male and thirty female) approximately six weeks old were randomized into six cohorts (three cohorts for each gender) and then intramuscularly administered either vehicle alone (filter-sterilized 0.2 μm endotoxin-free PBS), vehicle containing CPDI-02 at 50% the observed MTD [65 mg/kg], or CPDI-02 suspended in PBS at 100% the observed MTD [130 mg/kg] twice a week over 32 days (nine doses total). Mice were weighed prior to each dose administration. On the day of administration, mice were assigned a Pain and Distress Assessment Score (Table S1). Four days after the last treatment, through terminal cardiac bleed, whole blood was collected for complete blood count (CBC) with differential (Abaxis VetScan® HM5 Hematology Analyzer, Union City, CA, USA) and blood chemistry (Abaxis VetScan® VS-2 Blood Chemistry Analyzer). In addition, injection site muscle tissues were collected, fixed in 10% formalin for 48 h, and then embedded in paraffin. Paraffin samples were cut into sections and underwent an H&E stain, then analyzed for signs of inflammation and other tissue abnormalities utilizing a Nikon Eclipse E600 (Nikon Corporation, Tokyo, Japan) at 200× magnification, and imaged using a Lumenera Infinity 2 Microscope Camera.

[7] = system: CA-MRSA USA300; details: cited from earlier work
Source text: Consistent with protection, SQ treatment with CPDI-02 increased local levels of IL-1β, IL-6, and CXCL1 and NP recruitment to the abscess. In contrast, SQ treatment of C5aR1 knockout mice with CDPI-02 had no effect against SQ infection with CA-MRSA up to ...

[8] = system: neutrophils (Ly6G/Ly6C+) and mononuclear phagocytes (F4/80+) in subcutaneous abscesses; assay: Proportions of neutrophils and mononuclear phagocytes in subcutaneous abscesses (quantitative IHC); assay type: in vivo, female outbred CD-1 mice; details: single IM 50 mg/kg at 6 h post-challenge; 18 h post-treatment; n = 3 mice

CSCC[C@H](NC(=O)[C@H](CC(=O)O)NC(=O)[C@H](CCCCN)NC(=O)[C@H](Cc1ccccc1)NC(=O)[C@H](CO)NC(=O)[C@@H](N)Cc1ccc(O)cc1)C(=O)N1CCC[C@H]1C(=O)N(C)[C@@H](CC(C)C)C(=O)N[C@H](C)C(=O)N[C@@H](CCCNC(=N)N)C(=O)O [CPDI-02]
levels of IFN-γ, IL-2, IL-4, IL-5, IL-6, IL-10, IL-12p70, CXCL-1 [KC/GRO], TNF-α in subcutaneous abscesses ([1]; 3 h and 18 h post-treatment): no effect | levels of IL-1β in subcutaneous abscesses vs vehicle alone ([1]; 3 h post-treatment): decreased | weight gain or survival ([2]; male and female CD-1 mice, IM twice a week, 15 up to 225 mg/kg over 28 days, 8 doses, n = 6): did not affect | mice with signs of inflammation around the injection site ([2]; male mice, four days after final dose, H&E, vehicle none): 50% | mice with signs of inflammation around the injection site ([2]; mouse, in vivo): 83% | signs of inflammation in thymus, heart, lungs, brain, liver, spleen, kidneys, femur bone marrow, popliteal lymph nodes, Peyer's patches ([2]; mouse, in vivo): did not increase | platecrit vs vehicle alone ([2]; mouse, in vivo, 225 mg/kg): decreased | platelets vs vehicle alone ([2]; mouse, in vivo, 225 mg/kg): decreased | solubility [3]: ~100 mg/mL (≈ 80.5 mM) | potency for activating MPs over NPs ([4]; primary human MPs vs primary human NPs): 10^3 fold | EC50 ([4]; primary human MPs): 0.167 µM | EC50 [5]: 160 µM | inflammation around the injection site vs vehicle alone ([6]; IM 65 and 130 mg/kg, dose-dependent, greater proportion of female than male mice, H&E): increased signs of mild to severe inflammation | mortality vs vehicle alone ([6]; female mice, repeat IM 130 mg/kg, after the eighth and ninth IM injection, p = 0.0022): increased mortality | signs of distress up to 2 h after injection ([6]; male and female CD-1 mice, IM 65 or 130 mg/kg, 9 injections, any treatment group): No signs of distress | weight gain ([6]; male or female CD-1 mice, IM 65 or 130 mg/kg twice per week over 32 days, 9 injections, n = 10): no effect | effect on CBC (including platelets, platecrit) or blood chemistry vs vehicle alone ([6]; male or female mice, IM 65 or 130 mg/kg, up to 4 days after final injection (Day 32), n = 5): did not | inflammation in thymus, heart, lungs, brain, liver, spleen, kidneys, femur bone marrow, popliteal lymph nodes, Peyer's patches ([6]; repeat IM 65 or 130 mg/kg, H&E): no signs of inflammation | effect against SQ infection with CA-MRSA vs inactive scCPDI-02 ([7]; C5aR1 knockout mice, SQ treatment, up to 48 h post-challenge): no effect | local levels of IL-1β, IL-6 and CXCL1 and NP recruitment to the abscess ([7]; outbred mice, prophylactic SQ treatment): increased | maximum abscess surface area, CA-MRSA load per gram of tissue and time to abscess resolution vs inactive scCPDI-02 ([7]; outbred mice, repeat SQ treatment before and after SQ challenge, three injections total, 12.5 mg/kg): significantly decreased | increase of ratio of MPs (F4/80+) to total cells (DAPI+) vs vehicle alone [8]: 4 fold | increase of ratio of mononuclear phagocytes to neutrophils (Ly6G/Ly6C+) vs vehicle alone [8]: 7 fold | ratio of NPs (Ly6G/Ly6C+) to total cells (DAPI+) in subcutaneous abscesses vs vehicle alone [8]: similar

Reference: article PMC11677424, “Early-Stage IM Treatment with the Host-Derived Immunostimulant CPDI-02 Increases Curative Protection of Healthy Outbred Mice Against Subcutaneous Infection with Community-Acquired Methicillin-Resistant Staphylococcus aureus USA300” (Pharmaceutics, 2024)
